In patent US20250353845A1, “THYROID HORMONE BETA RECEPTOR AGONIST, CRYSTAL FORM, PREPARATION METHOD AND USE” (KPC PHARMACEUTICALS, INC, priority 2022, published 2025):
Where two headings read alike, the source gives them in different places.

Columns and labels:
[1] = biological target: thyroid hormone receptor β (THR β) (Homo sapiens, UniProt P10828); assay: In vitro enzyme activity test of thyroid receptor β (TR-FRET, binding of THRβ LBD with co-activating peptide SRC2-2); format: biochemical
Procedure: Time-resolved fluorescence resonance energy transfer (TR-FRET) experimental method was used to evaluate the agonist activity in vitro of the compounds to be tested through the binding of thyroid hormone receptor β (THR β) with its co-activating peptide SRC2-2.
GST tag was fused to THR β ligand binding domain (THR β LBD), and its co-activating peptide SRC2-2 was biotinylated. The binding capacity of THR β LBD to SRC2-2 was determined by detecting the tightly bound Europium-labeled anti-GST antibody and Streptavidin labeled with D2 with TR-FRET.
1) the compounds to be tested were dissolved in DMSO to prepare a 30 mM stock solution that could be stored in a dryer at room temperature for three months. If it is stored for a long time, it will be placed in a refrigerator at −20° C.
The activity rate is calculated as follows: […]
Ratio valuepositive control: average value of the ratios of all positive control holes in the whole plate.
Ratio valuenegative control: average value of the ratios of all negative control holes in the whole plate.
The EC50 (half excited concentration) of the compound was obtained by using the following nonlinear fitting formula.
X: log value of compound concentration; Y: activity rate of compound.

[2] = biological target: T1, thyroid receptor β (THRβ) (Homo sapiens, UniProt P10828); assay: Cytological activity test of thyroid receptor β (luciferase reporter gene in HEK293T cells); format: cell-based; settings: read-out: EC50 of THR β in vitro cell activity
T1 construct: expressed in transfected cells; host or cells: HEK293T
T1 sequence (P10828 217-461 limits assumed): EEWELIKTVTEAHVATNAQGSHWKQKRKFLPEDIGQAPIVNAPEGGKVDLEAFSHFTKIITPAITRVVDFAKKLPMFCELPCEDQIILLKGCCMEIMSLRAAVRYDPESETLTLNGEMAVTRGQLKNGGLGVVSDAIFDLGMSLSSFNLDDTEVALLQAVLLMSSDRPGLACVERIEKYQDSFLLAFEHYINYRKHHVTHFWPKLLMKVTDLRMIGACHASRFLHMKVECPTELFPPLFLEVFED
Text: In this study, the fluorescence reporter gene experiment method was used to evaluate the excitatory effects of the two compounds to be tested on THR β target.
PGL4.35 [luc2P/9XGAL4UAS/Hygro] contains nine GALA-UAS repeat sequences (upstream activation sequences). This sequence drives the transcription of luciferase reporter gene luc2P, in response to the binding of the fusion protein containing Gal4 DNA binding domain with the ligand binding domain of thyroid receptor β (THR β) in pBIND THRβ vector. Stimulation on THRβ by the test sample will lead to the increase of luminescence signal.
The positive compound was dissolved in DMSO to prepare a 5 mM stock solution, and then diluted to a 0.5 mM stock solution. All compounds were dissolved in DMSO and stored in a refrigerator at −20° C. […]
2) HEK293T cells were cultured according to ATCC standard, and the cells were tested in exponential growth period. […] The cells were collected and counted. […]
5) The Britelite plus detection reagent was placed at room temperature. […] Envision was used to detect the luminescence value.
6) Agonism percentage is calculated as follows:
[formula] • RLU: Resulting Luminescence • RLUpositive control: average value of luminescence of all positive control holes in the whole plate. • RLUnegative control: average value of luminescence of all negative control holes in the whole plate. […]

[3] = Pharmacokinetic evaluation in rats (liver-blood ratio); format: in vivo, CD rats
Procedure: To determine the pharmacokinetic parameters of the compound represented by formula (I) in rats.
The animals were given the compound at a dose of 5 mg/kg at a concentration of 0.5 mg/mL. Animals were cross-collected for plasma samples at 2, 6 and 10 h after administration. The drug concentration in the plasma samples was determined by LC-MS/MS method, and the kinetic parameters of the test drugs obtained were found in Table 25: […]

[4] = Hygroscopicity of crystalline form A by dynamic vapor sorption (DVS); format: physicochemical; settings: 25° C. and 80% RH
Procedure: Instrument model: TA Instruments Q5000 SA dynamic moisture adsorption instrument.
Test conditions: 1 mg to 10 mg sample was weighed and placed in a DVS sample tray for testing.
The detailed DVS parameters were as follows: temperature: 25° C., balance: dm/dt=0.01%/min for 15.00 min, drying: 90 min at 0% RH, RH (%) test gradient: 10% RH (%), test gradient range: 0%-80%-0%.
The hygroscopicity evaluation is classified as follows:
Experimental material: TA Instruments Q5000 SA dynamic moisture adsorption instrument
Experimental method: 1 mg to 10 mg of sample was weighted and placed in a DVS sample tray for testing.

[5] = Solid stability test of crystalline form A; format: physicochemical; settings: open, 10 days
Text: […] Samples in duplicate were placed under each condition, and the samples for XRPD detection and melting points were placed separately. Samples placed under different conditions were sampled for XRPD detection at the planned test end point, and the test results were compared with the initial test results at Day 0.

Sequence of thyroid hormone receptor β (THR β) (P19793 whole entry partner, other chains not shown, the tested form may be a part): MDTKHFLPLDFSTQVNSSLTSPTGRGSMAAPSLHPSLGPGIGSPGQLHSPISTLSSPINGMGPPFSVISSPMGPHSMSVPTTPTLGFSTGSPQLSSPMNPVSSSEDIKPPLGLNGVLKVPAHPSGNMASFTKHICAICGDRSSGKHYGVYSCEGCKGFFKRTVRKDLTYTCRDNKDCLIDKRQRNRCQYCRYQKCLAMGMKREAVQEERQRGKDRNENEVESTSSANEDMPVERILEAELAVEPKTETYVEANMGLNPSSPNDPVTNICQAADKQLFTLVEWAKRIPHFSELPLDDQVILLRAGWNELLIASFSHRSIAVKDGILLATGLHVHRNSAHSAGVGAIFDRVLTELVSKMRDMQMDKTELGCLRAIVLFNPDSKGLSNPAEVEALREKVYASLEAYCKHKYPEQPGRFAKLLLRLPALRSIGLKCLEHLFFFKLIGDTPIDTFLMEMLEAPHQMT

C[C@@H]1CCc2c(Oc3c(Cl)cc(-n4nc(C#N)c(=O)[nH]c4=O)cc3Cl)ccc(=O)n21 [Compound represented by formula (I)]
EC50 [1]: 46 nM | EC50 [2]: 214 nM | Kp at 2 h ([3]; male, CD, liver/plasma, rat, PO, 5.0 mg/kg, 2 h, read-out: L/P concentration ratio): 7.7 | Kp at 6 h ([3]; male, CD, liver/plasma, rat, PO, 5.0 mg/kg, 6 h, read-out: L/P concentration ratio): 22.1 | Kp at 10 h ([3]; male, CD, liver/plasma, rat, PO, 5.0 mg/kg, 10 h, read-out: L/P concentration ratio): 23.6 | concentration at 2 h ([3]; male, CD, liver, rat, PO, 5.0 mg/kg, 2 h, read-out: Liver drug concentration L): 1180 ng/g | concentration at 6 h ([3]; male, CD, liver, rat, PO, 5.0 mg/kg, 6 h, read-out: Liver drug concentration L): 746 ng/g | concentration at 10 h ([3]; male, CD, liver, rat, PO, 5.0 mg/kg, 10 h, read-out: Liver drug concentration L): 238 ng/g | concentration at 2 h ([3]; male, CD, plasma, rat, PO, 5.0 mg/kg, 2 h, read-out: Blood drug concentration P): 153 ng/mL | concentration at 6 h ([3]; male, CD, plasma, rat, PO, 5.0 mg/kg, 6 h, read-out: Blood drug concentration P): 33.8 ng/mL | concentration at 10 h ([3]; male, CD, plasma, rat, PO, 5.0 mg/kg, 10 h, read-out: Blood drug concentration P): 10.1 ng/mL | half-life ([3]; male, CD, plasma, rat, PO, 5.0 mg/kg, read-out: T½ (converted)): 3.7 h | liver targeting (conclusion) ([3]; rat, PO, 5.0 mg/kg): Conclusion: The blood drug concentration of the compound represented by formula (I) in rats was relatively low, and the liver drug concentration was relatively high, so the compound represented by formula (I) has good liver targeting. | blood drug concentration ([3]; rats): low | liver drug concentration ([3]; rats): relatively high | liver targeting ([3]; rats): good liver targeting properties

C[C@@H]1CCc2c(Oc3c(Cl)cc(-n4nc(C#N)c(=O)[nH]c4=O)cc3Cl)ccc(=O)n21 [crystalline form A]
hygroscopicity classification [4]: slight hygroscopicity | hygroscopic weight gain ΔW ([4]; DVS): 0.6% | Crystalline form (XRPD) after storage ([5]; 25° C./65% RH): Crystalline form A | Crystalline form (XRPD) after storage ([5]; 25° C./85% RH): Crystalline form A | Crystalline form (XRPD) after storage ([5]; 40° C./75% RH): Crystalline form A | Crystalline form (XRPD) after storage ([5]; 50° C.): Crystalline form A
